Source: patent US10112935B2, “Indazolyl thiadiazolamines and related compounds for inhibition of Rho-associated protein kinase and the treatment of disease” (Lycera Corporation, priority 2015, dated 2018)

Assays:
[1] = molecular target: GST-tagged human ROCK1 catalytic domain 1-477 (Homo sapiens (Human), UniProt Q13464); assay: Inhibition of Rho-associated protein kinase isoform 1 (LANCE Ultra ULight-CREBtide FRET kinase assay); assay type: biochemical; conditions: 30 μM was the highest concentration analyzed
Procedure, shortened: (§1)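 Baculovirus-expressed kinase phosphorylated ULight-CREBtide for 90 min at room temperature before the reaction was stopped with 10 mM EDTA. Phospho-substrate was detected by TR-FRET with 1 nM Europium-anti-phospho-CREB (Ser133) antibody after 60 min at room temperature.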

[2] = molecular target: GST-tagged human ROCK2 catalytic domain 1-553 (Homo sapiens (Human), UniProt O75116); assay: Inhibition of Rho-associated protein kinase isoform 2 (LANCE Ultra ULight-CREBtide FRET kinase assay); assay type: biochemical; conditions: for IC50: 30 μM was the highest concentration analyzed; for Selectivity for ROCK2 over ROCK1 (IC50 ROCK1 / IC50 ROCK2): selectivity ROCK2 vs ROCK1
Procedure, shortened: as §1

ROCK [3] = conditions: porcine, IL-1 beta-induced; cited from earlier work
ROCK [4] = conditions: rat stroke model; cited from earlier work

Sequence of GST-tagged human ROCK1 catalytic domain 1-477 (Q13464 1-477): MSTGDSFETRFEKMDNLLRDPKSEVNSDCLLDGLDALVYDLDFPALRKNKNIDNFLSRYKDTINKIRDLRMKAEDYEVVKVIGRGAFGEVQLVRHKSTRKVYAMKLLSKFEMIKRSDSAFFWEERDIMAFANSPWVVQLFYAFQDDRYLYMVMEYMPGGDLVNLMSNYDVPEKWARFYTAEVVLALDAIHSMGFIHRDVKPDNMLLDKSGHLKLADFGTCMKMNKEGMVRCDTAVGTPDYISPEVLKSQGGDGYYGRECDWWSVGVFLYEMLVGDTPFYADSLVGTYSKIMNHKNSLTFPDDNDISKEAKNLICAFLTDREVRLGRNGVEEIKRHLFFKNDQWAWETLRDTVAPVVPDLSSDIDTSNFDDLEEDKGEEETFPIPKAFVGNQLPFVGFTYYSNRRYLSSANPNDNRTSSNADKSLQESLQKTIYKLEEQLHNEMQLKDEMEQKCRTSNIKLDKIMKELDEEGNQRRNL
Sequence of GST-tagged human ROCK2 catalytic domain 1-553 (O75116 1-553): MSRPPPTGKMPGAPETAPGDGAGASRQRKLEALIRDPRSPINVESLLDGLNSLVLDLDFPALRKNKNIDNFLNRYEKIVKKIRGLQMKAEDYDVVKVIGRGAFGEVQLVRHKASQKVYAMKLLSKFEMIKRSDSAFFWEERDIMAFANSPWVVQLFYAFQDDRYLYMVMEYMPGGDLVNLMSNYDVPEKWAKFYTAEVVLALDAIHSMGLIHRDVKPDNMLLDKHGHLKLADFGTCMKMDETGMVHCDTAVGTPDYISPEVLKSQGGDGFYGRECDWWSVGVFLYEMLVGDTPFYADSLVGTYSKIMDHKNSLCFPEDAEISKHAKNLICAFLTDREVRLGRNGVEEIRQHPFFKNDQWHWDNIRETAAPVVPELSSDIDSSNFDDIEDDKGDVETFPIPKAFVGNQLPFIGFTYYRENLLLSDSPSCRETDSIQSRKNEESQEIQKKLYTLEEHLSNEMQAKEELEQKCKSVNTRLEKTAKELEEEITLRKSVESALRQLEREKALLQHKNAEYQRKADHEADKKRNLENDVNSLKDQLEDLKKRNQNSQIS

Compound | IC50 [1] | IC50 [2] | Selectivity for ROCK2 over ROCK1 (IC50 ROCK1 / IC50 ROCK2) [2] | coronary stenosis (ROCK [3]) | infarct size and neurologic deficit (ROCK [4])
O=C(Nc1cncc(-c2nnc(Nc3ccc4[nH]ncc4c3)s2)c1)c1c[nH]cn1 [Example A-37] | > 30 µM | < 1 µM | >100 |  | 
N[C@@H]1CCN(c2nnc(Nc3ccc4[nH]ncc4c3)s2)C1 [Example A-38] | 1 to 15 µM | 1 to 15 µM | <5 |  | 
Cc1cc(C(=O)Nc2cccc(-c3nnc(Nc4ccc5[nH]ncc5c4)s3)c2)[nH]n1 [Example A-39] | 1 to 15 µM | < 1 µM | >5 |  | 
Cc1cc(C(=O)Nc2cccc(-c3nnc(Nc4ccc5[nH]ncc5c4)s3)c2)no1 [Example A-40] | > 30 µM | < 1 µM | >100 |  | 
Cn1cc(C(=O)Nc2cccc(-c3nnc(Nc4ccc5[nH]ncc5c4)s3)c2)cn1 [Example A-41] | > 30 µM | < 1 µM | >100 |  | 
Cn1ccc(C(=O)Nc2cccc(-c3nnc(Nc4ccc5[nH]ncc5c4)s3)c2)n1 [Example A-42] | < 1 µM | < 1 µM | >5 |  | 
Cn1nccc1C(=O)Nc1cccc(-c2nnc(Nc3ccc4[nH]ncc4c3)s2)c1 [Example A-43] | > 30 µM | < 1 µM | >100 |  | 
Cc1cnoc1C(=O)Nc1cccc(-c2nnc(Nc3ccc4[nH]ncc4c3)s2)c1 [Example A-44] | > 30 µM | < 1 µM | >100 |  | 
O=[N+]([O-])c1cccc(-c2nnc(Nc3ccc4[nH]ncc4c3)s2)c1 [Example A-45] | 1 to 15 µM | 1 to 15 µM | <5 |  | 
O=C(Nc1cccc(-c2nnc(Nc3ccc4[nH]ncc4c3)s2)c1)c1cn[nH]c1 [Example A-46] | > 30 µM | < 1 µM | >100 |  | 
Nc1cccc(-c2nnc(Nc3ccc4[nH]ncc4c3)s2)c1 [Example A-47] | > 30 µM | 1 to 15 µM | >5 |  | 
c1cc2[nH]ncc2cc1Nc1nnc(N2CCNCC2)s1 [Example A-48] | 1 to 15 µM | 1 to 15 µM | <5 |  | 
O=C(Nc1cccc(-c2nnc(Nc3ccc4[nH]ncc4c3)s2)c1)c1c[nH]cn1 [Example A-49] | > 30 µM | < 1 µM | >100 |  | 
O=C(Nc1cccc(-c2nnc(Nc3ccc4[nH]ncc4c3)s2)c1)c1cccnc1 [Example A-50] | > 30 µM | < 1 µM | >100 |  | 
O=S(=O)(c1cccc2cnccc12)N1CCCNCC1 [fasudil] |  |  |  | progressively reduce coronary stenosis | reduce both the infarct size and neurologic deficit
